Assay results from US20230136301A1, “Corticosteriod Reduction in Treatment with Anti-CD38 Antibody” (Janssen Biotech, Inc., priority 2021, published 2023).
Several values for one entry are separate records, joined by “and”; a condition that tells them apart may be missing. Equal values may be shown once. Read-outs that look alike come from different tables or passages of the source.

Experiments:
patients with RRMM [1] = conditions: PAVO Part 2; follow-up 14.2 months; cited from earlier work
patients with RRMM [2] = test: PAVO Part 2: DARA SC safety and efficacy
[3] = PAVO Part 3: serum daratumumab concentration, pre-dose Cycle 3 Day 1; format: in vivo, human; conditions: Cycle 3 Day 1 pre-dose
patients with RRMM [4] = test: PAVO Part 3: efficacy by IMWG response criteria; format: in vivo, human
Procedure: The primary endpoint was safety of pre- and post-dose steroid tapering. Key secondary endpoints included the overall response rate (ORR) and the rate of complete response (CR).
For the evaluation of efficacy, responses were assessed according to International Myeloma Working Group (IMWG) consensus recommendations (Durie et al., Leukemia 20(9):1467-73 (2006); Rajkumar et al., Blood 117(18):4691-95 (2011)). Disease evaluations were performed by a central laboratory.
In PAVO Part 3, no formal statistical hypothesis testing was performed. Data were summarized descriptively. Continuous variables were summarized using the number of observations, mean and standard deviation (SD), coefficient of variation, median and range as appropriate. Categorical variables were summarized using the number of observations and percentages as appropriate. Duration of response and PFS were estimated using Kaplan-Meier methods.

[5] = tested on: patients with multiple myeloma; conditions: cited from earlier work
patients with RRMM [6] = test: PAVO Part 3: infusion-related reactions (IRRs)
Procedure: Safety was assessed, with an emphasis on IRRs, while corticosteroids were reduced and discontinued.
The purpose of Part 3 was to evaluate the safety of daratumumab 1,800 mg SC delivery without predose and postdose corticosteroids after a 3-week, 2-week, and 1-week tapering schedule to assess the safety of corticosteroid-free SC daratumumab administration. […] In conjunction, patients also received a 3-week, 2-week, or 1-week steroid tapering schedule (FIG. 2). The 3-week tapering schedule (corticosteroid-free by Cycle 1 Day 22) consisted of methylprednisolone (MP) given orally (PO)/IV pre-dose (Cycle 1 Day 1, 100 mg; Cycle 1 Day 8, 60 mg; Cycle 1 Day 15, 30 mg) and PO post-dose (Cycle 1 Day 1, 20 mg for 2 days; Cycle 1 Day 8, 20 mg for 1 day; Cycle 1 Day 15, 20 mg for 1 day). The 2-week tapering schedule (corticosteroid-free by Cycle 1 Day 15) consisted of MP given PO/IV pre-dose (Cycle 1 Day 1, 100 mg; Cycle 1 Day 8, 60 mg) and PO post-dose (Cycle 1 Day 1, 20 mg for 2 days; Cycle 1 Day 8, 20 mg for 1 day). The 1-week tapering schedule (corticosteroid-free by Cycle 1 Day 8) consisted of dexamethasone 20 mg administered IV pre-dose on Cycle 1 Day 1, without post-dose administration.
The 3-week, 2-week and 1-week steroid tapering schedules were assessed by “3+3” design, followed by cohort expansion to approximately 15 patients (3-week and 2-week tapering cohorts) or 12 patients (1-week tapering cohort). The dose-limiting toxicity (DLT) assessment period in the 3-week, 2-week and 1-week tapering cohorts were Cycle 1 Day 1 through Cycle 2 Day 4, Cycle 1 Day 1 through Cycle 1 Day 25, and Cycle 1 Day 1 through Cycle 1 Day 11, respectively. […] Grade 3 or 4 IRRs only qualified as DLTs if they occurred during corticosteroid reduction or discontinuation (not during Cycle 1 Day 1). For the 3-week and 2-week groups, IRRs reported at Cycle 1 Day 1 were not considered DLTs, as corticosteroids had not yet been reduced or discontinued. Up to approximately 12 patients could be enrolled in the 1-week tapering schedule to assess safety, including IRRs.
Safety assessments included treatment-emergent adverse events (TEAEs), serious adverse events, and IRRs. All toxicities were graded according to the National Cancer Institute's Common Terminology for the Classification of Adverse Events (NCI-CTCAE) Version 4.03 (National Cancer Institute. Common Terminology Criteria for Adverse Events (CTCAE): Version 4.03.).

DARA SC: 1,800 mg daratumumab co-formulated with 30,000 U rHuPH20 (2,000 U/mL, 15 mL), manual subcutaneous injection
Median duration of response (patients with RRMM [1]): 15.7 months
ORR (patients with RRMM [1]): 52%
Lymphopenia, TEAE of Grade >3 (patients with RRMM [2]): 20.0%
Serious TEAEs in SOC General disorders and administration site conditions (patients with RRMM [2]): 8.0%
TEAEs in SOC General disorders and administration site conditions (patients with RRMM [2]): 72.0%
Mean (SD) daratumumab serum concentration ([3]; 1-week taper): 706 (270) μg/mL and 706 μg/mL
Mean (SD) daratumumab serum concentration ([3]; 2-week taper): 731 (382) μg/mL and 731 μg/mL
Mean (SD) daratumumab serum concentration ([3]; 3-week taper): 604 (280) μg/mL and 604 μg/mL
Mean (SD) daratumumab serum concentration ([3]; total PK-evaluable n=37): 676 (314) μg/mL
9-month duration of response rate (patients with RRMM [4]; 1-week taper): 100%
Estimated 9-month PFS rate (patients with RRMM [4]; 1-week taper): 46.7%
Median PFS (patients with RRMM [4]; 1-week taper): 7.4 months
Median duration of response (patients with RRMM [4]; 1-week taper): not reached
Median time to best response (patients with RRMM [4]; 1-week taper): 1.0 months
Patients achieving ≥CR (patients with RRMM [4]; 1-week taper): 1 (8.3%) n (%)
Patients achieving ≥VGPR (patients with RRMM [4]; 1-week taper): 2 (16.7%) n (%)
Rate of very good partial response or better (patients with RRMM [4]; 1-week taper): 16.7%
Overall response rate (ORR) (patients with RRMM [4]; 1-week taper, median follow-up 8.3 months): 41.7%
9-month duration of response rate (patients with RRMM [4]; 2-week taper): 83.3%
Estimated 9-month PFS rate (patients with RRMM [4]; 2-week taper): 36.1%
Median PFS (patients with RRMM [4]; 2-week taper): 4.7 months
Median duration of response (patients with RRMM [4]; 2-week taper): 16.7 months
Median time to best response (patients with RRMM [4]; 2-week taper): 1.9 months
Patients achieving ≥CR (patients with RRMM [4]; 2-week taper): no patient
Patients achieving ≥VGPR (patients with RRMM [4]; 2-week taper): 5 (33.3%) n (%)
Rate of very good partial response or better (patients with RRMM [4]; 2-week taper): 33.3%
Overall response rate (ORR) (patients with RRMM [4]; 2-week taper, median follow-up 11.1 months): 40.0%
9-month duration of response rate (patients with RRMM [4]; 3-week taper): 83.3%
Estimated 9-month PFS rate (patients with RRMM [4]; 3-week taper): 40.0%
Median PFS (patients with RRMM [4]; 3-week taper): 5.9 months
Median duration of response (patients with RRMM [4]; 3-week taper): not reached
Median time to best response (patients with RRMM [4]; 3-week taper): 1.5 months
Patients achieving ≥CR (patients with RRMM [4]; 3-week taper): 1 (6.7%) n (%)
Patients achieving ≥VGPR (patients with RRMM [4]; 3-week taper): 3 (20.0%) n (%)
Rate of very good partial response or better (patients with RRMM [4]; 3-week taper): 20.0%
Overall response rate (ORR) (patients with RRMM [4]; 3-week taper, median follow-up 9.2 months): 40.0%
Patients achieving ≥CR (patients with RRMM [4]; Total n=42): 2 (4.8% (95% CI: 0.6%, 16.2%)) n (%)
Patients achieving ≥VGPR (patients with RRMM [4]; Total n=42): 10 (23.8% (95% CI: 12.1%, 39.5%)) n (%)
Overall response rate (ORR) (patients with RRMM [4]; Total n=42, median follow-up 8.3 months): 40.5%
Estimated 9-month PFS rate (patients with RRMM [4]; all treated N=42): 40.7%
Median PFS (patients with RRMM [4]; all treated N=42): 5.9 months
Median time to best response (patients with RRMM [4]; responders n=17): 1.1 months
Median time to first response (patients with RRMM [4]; responders n=17): 1.0 months
Median PFS ([5]; COLUMBA primary analysis): 5.6 months
Median duration of response ([5]; COLUMBA, follow-up 7.5 months): not reached
Overall response rate ([5]; COLUMBA, median follow-up 7.5 months): 41%
Patients with an IRR (patients with RRMM [6]; 1-week taper): 2 (16.7%) n (%)
Patients with an IRR (patients with RRMM [6]; 2-week taper): 3 (20.0%) n (%)
Patients with an IRR (patients with RRMM [6]; 3-week taper): 0 (0%) n (%)
Grade 4 IRRs (patients with RRMM [6]; Total n=42): no grade 4 IRRs reported
IRR of increased blood pressure (patients with RRMM [6]; Total n=42): 1 (2.4%) n (%)
IRR of oropharyngeal pain (patients with RRMM [6]; Total n=42): 1 (2.4%) n (%)
IRR of tachycardia (patients with RRMM [6]; Total n=42): 1 (2.4%) n (%)
IRRs meeting the definition of a DLT (patients with RRMM [6]; Total n=42): None of the IRRs met the definition of a DLT
Patients with an IRR (patients with RRMM [6]; Total n=42): 5 (11.9%) n (%)
Number of grade 3 IRRs (patients with RRMM [6]; increased blood pressure, 2-week taper, resolved on day of onset): 1
